What was measured:
Assay type in all cases: cell-based, human
H520 = assay: relative growth in dropout media (XTT / CellTiter-Glo); conditions: for relative growth: three days
Description: (§1) To establish the screening assay for the nutritional weakness of cancer cells, 5 human blood cancer cell lines, 4 human lung cancer cell lines, 1 human colon cancer cell line, 1 human liver cancer cell line, 5 human breast cancer cell lines, and 3 human prostate cancer cell lines were used (Table 1). All 19 cell lines were cultured in reconstituted complementary RPM11640 based media R-comp (Table 2) for more than 10 days before screening assays.
(§2) To test for nutritional weaknesses of cancer cell lines or primary cancer cells, each individual non-essential amino acid was dropped out from the R-comp media (Table 2). Multiple amino acid dropout media was used to test combinatorial effects. Prior to the experiments, cells were first acclimated in R-comp media, and then harvested and washed in EBSS solution. The cell density was adjusted to 1-3×10^5 cells/ml before adding to equal volumes of 2× dropout media plus 2× R-comp (positive control) in a 96-well plate. The plates were then placed in an incubator set at 37° C. with a 5% CO2 supply. Five technical replicates were used for each medium treatment. For each cell line, at least three biological replicates were performed with 2 time-points (day 1 and day 3).
(§3) Cell growth was analyzed with two cell viability methods (XTT and CellTiter-Glo-based assays). In the XTT-based assay, cell growth is measured by absorbance at 450 nm after adding the XTT reagent to each culture and incubating under the same culture conditions for 2 hours according to the manufacturer's instructions (ThermoFisher X6493). Absorption at 690 nm was also measured as background and subtracted from absorption at 450 nm. In the CellTiter-Glo-based assay (Promega, G7572), cell growth is measured by luminescence with a dwelling time of 200 milliseconds on a Tecan plate reader.
(§4) The relative growth is calculated with the following equation: Growth %=(readingdropout−average(readingsblank))/(average(readingsR-comp)−average(readingsblank))×100%

H661 = assay: as above; conditions: for relative growth: three days; for relief of suppressed growth by augmented supplementation (in words): cystine and tyrosine dropouts, 20 times
Description: as §1, §2, §3, §4

H69 = assay: as above; conditions: for relative growth: three days
Description: as §1, §2, §3, §4

K562 = assay: as above; conditions: for relative growth: —Cys, three days, CellTiter-Glo
Description: as §1, §2, §3, §4

GA10 = assay: as above
Description: as §1, §2, §3, §4

H1437 = assay: as above
Description: as §1, §2, §3, §4

Jurkat = assay: as above
Description: as §1, §2, §3, §4

HCT116 = assay: as above; conditions: for growth with vitamin supplementation in the absence of cystine (in words): 50×
Description: as §1, §2, §3, §4

U937 = assay: as above; conditions: for relief of suppressed growth by augmented supplementation (in words): cystine and tyrosine dropouts, 20 times
Description: as §1, §2, §3, §4

cancer cell lines = assay: growth assay in dropout media, cancer cell lines as a group; conditions: up to 50× strength; cell lines sensitive to cystine dropout
Description: as §1
To test for nutritional weaknesses of cancer cell lines or primary cancer cells, each individual non-essential amino acid was dropped out from the R-comp media (Table 2). Multiple amino acid dropout media was used to test combinatorial effects. Prior to the experiments, cells were first acclimated in R-comp media, and then harvested and washed in EBSS solution. […]
as §3, with “reader. […]” for “reader.”

HCC1187 = assay: relative growth in dropout media (XTT / CellTiter-Glo); conditions: —Cys (5x Met), vitamin supplementation 50x, three days, Cell-Titer-Glo
Description: as §1, §2, §3, §4

HCC1599 = assay: as above
Description: as §1, §2, §3, §4

MDA-MB-453 = assay: as above
Description: as §1, §2, §3, §4

C4-28 = assay: as above; conditions: —Cys (5x Met), vitamin supplementation 50x, three days, Cell-Titer-Glo
Description: as §1, §2, §3, §4

HCC70 = assay: as above; conditions: —Cys (5x Met), vitamin supplementation 50x, three days, Cell-Titer-Glo
Description: as §1, §2, §3, §4

HL60 = assay: as above; conditions: —Cys (5x Met), vitamin supplementation 50x, three days, Cell-Titer-Glo
Description: as §1, §2, §3, §4

HepG2 = assay: as above; conditions: —Cys (5x Met), vitamin supplementation 50x, three days, Cell-Titer-Glo
Description: as §1, §2, §3, §4

MDA-MB-231 = assay: as above; conditions: —Cys (5x Met), vitamin supplementation 50x, three days, Cell-Titer-Glo
Description: as §1, §2, §3, §4

PC-3 = assay: as above; conditions: —Cys (5x Met), vitamin supplementation 50x, three days, Cell-Titer-Glo
Description: as §1, §2, §3, §4

VCaP = assay: as above; conditions: —Cys (5x Met), vitamin supplementation 50x, three days, Cell-Titer-Glo
Description: as §1, §2, §3, §4

[1] = 0.1× level of cystine supplementation
[2] = —Cys, +Cys 0.01x (5x Met), CellTiter-Glo
[3] = —Cys, +Cys 0.02x (5x Met), CellTiter-Glo
[4] = —Cys, +Cys 0.05x (5x Met), CellTiter-Glo
[5] = —Cys, +Cys 0.1x (5x Met), CellTiter-Glo
[6] = —Cys, +Cys 0.5x (5x Met), CellTiter-Glo
[7] = —Cys, +Glut 2.5x, CellTiter-Glo
[8] = —Cys, +Glut 100x, CellTiter-Glo
[9] = —Cys (5x Met), vitamin supplementation 50x, Cell-Titer-Glo
[10] = —Cys (5x Met), vitamin supplementation 50x, three days, Cell-Titer-Glo

## N[C@@H](CSSC[C@H](N)C(=O)O)C(=O)O [+Cys (5x Met), cystine]
H520; [1]
  restoration of growth by adding back cystine (in words): merely restored
H520; [2]
  relative growth: 5.2%
H520; [3]
  relative growth: 4.7%
H520; [4]
  relative growth: 9.4%
H520; [5]
  relative growth: 41.8%
H520; [6]
  relative growth: 110.4%
H661; [2]
  relative growth: 0.1%
H661; [3]
  relative growth: 0.1%
H661; [4]
  relative growth: 0.1%
H661; [5]
  relative growth: 0.1%
H661; [6]
  relative growth: 103.2%
H69; [2]
  relative growth: 1.2%
H69; [3]
  relative growth: 1.3%
H69; [4]
  relative growth: 1.2%
H69; [5]
  relative growth: 2.1%
H69; [6]
  relative growth: 51.8%
K562; [1]
  restoration of growth by adding back cystine (in words): substantially restored to the levels of the control
K562; +Cys 0.01x (5x Met)
  relative growth: 1.9%
K562; +Cys 0.02x (5x Met)
  relative growth: 2.2%
K562; +Cys 0.05x (5x Met)
  relative growth: 9.5%
K562; +Cys 0.1x (5x Met)
  relative growth: 36.5%
K562; +Cys 0.5x (5x Met)
  relative growth: 101.5%

## N[C@@H](CCC(=O)N[C@@H](CS)C(=O)NCC(=O)O)C(=O)O [+Glut, glutathione]
GA10; 10× supplementation
  restoration of growth suppressed by cystine dropout (in words): not significantly
H1437; 10× supplementation
  restoration of growth suppressed by cystine dropout (in words): substantially restored the suppressed growth
H520; [7]
  relative growth: 21.3%
H520; —Cys, +Glut 10x, CellTiter-Glo
  relative growth: 71.3%
H520; —Cys, +Glut 50x, CellTiter-Glo
  relative growth: 97.8%
H520; [8]
  relative growth: 105.7%
H661; [7]
  relative growth: 0.2%
H661; —Cys, +Glut 10x, CellTiter-Glo
  relative growth: 13.0%
H661; —Cys, +Glut 50x, CellTiter-Glo
  relative growth: 75.4%
H661; [8]
  relative growth: 41.1%
H69; 10× supplementation
  restoration of growth suppressed by cystine dropout (in words): not significantly
H69; [7]
  relative growth: 1.4%
H69; —Cys, +Glut 10x, CellTiter-Glo
  relative growth: 2.1%
H69; —Cys, +Glut 50x, CellTiter-Glo
  relative growth: 3.6%
H69; [8]
  relative growth: 2.8%
Jurkat; 10× supplementation
  restoration of growth suppressed by cystine dropout (in words): substantially restored the suppressed growth
K562; +Glut 2.5x
  relative growth: 16.2%
K562; +Glut 10x
  relative growth: 78.8%
K562; +Glut 50x
  relative growth: 84.4%
K562; +Glut 100x
  relative growth: 98.9%

## CSCC[C@H](N)C(=O)O [+Met, methionine]
H520; —Cys, +Met 10x, CellTiter-Glo
  relative growth: 7.3%
H520; —Cys, +Met 50x, CellTiter-Glo
  relative growth: 16.7%
H661
  relief of suppressed growth by augmented supplementation (in words): not brought back
H661; —Cys, +Met 10x, CellTiter-Glo
  relative growth: 0.1%
H661; —Cys, +Met 50x, CellTiter-Glo
  relative growth: 0.1%
H69; —Cys, +Met 10x, CellTiter-Glo
  relative growth: 1.2%
H69; —Cys, +Met 50x, CellTiter-Glo
  relative growth: 1.2%
HCT116; 10×
  restoration of growth in the absence of cystine (in words): substantially restore HCT116 growth
K562; +Met 10x
  relative growth: 1.6%
K562; +Met 50x
  relative growth: 1.1%
U937
  relief of suppressed growth by augmented supplementation (in words): not brought back
Cancer cell lines
  promotion of growth under cystine dropout (in words): failed to promote the growth

## Cc1ncc(C[n+]2csc(CCO)c2C)c(N)n1 [B1, thiamine]
H520; [9]
  relative growth: 0.5%
H661; [9]
  relative growth: 1.5%
H69; [9]
  relative growth: 5.8%
HCC1187
  relative growth: 6.2%
HCC1599
  growth with vitamin supplementation in the absence of cystine (in words): substantially restored
HCT116
  growth with vitamin supplementation in the absence of cystine (in words): largely restored
MDA-MB-453; 50×
  growth with vitamin supplementation in the absence of cystine (in words): growth was promoted

## Cc1cc2nc3c(=O)[nH]c(=O)nc-3n(C[C@H](O)[C@H](O)[C@H](O)CO)c2cc1C [B2, riboflavin]
H520; [9]
  relative growth: 0.3%
H661; [9]
  relative growth: 0.2%
H69; [9]
  relative growth: 5.0%
HCC1187
  relative growth: 1.0%
HCT116
  growth with vitamin supplementation in the absence of cystine (in words): even more drastic growth suppression

## NC(=O)c1cccnc1 [B3, niacinamide]
H520; [9]
  relative growth: 0.3%
H661; [9]
  relative growth: 0.2%
H69; [9]
  relative growth: 5.3%
HCC1187
  relative growth: 3.4%

## Cc1ncc(CO)c(CO)c1O [B6, pyridoxine]
H520; [9]
  relative growth: 0.2%
H661; [9]
  relative growth: 0.9%
H69; [9]
  relative growth: 5.2%
HCC1187
  relative growth: 2.2%

## O=C(O)CCCC[C@@H]1SC[C@@H]2NC(=O)N[C@@H]21 [B7, biotin]
H520; [9]
  relative growth: 0.2%
H661; [9]
  relative growth: 0.2%
H69; [9]
  relative growth: 5.7%
HCC1187
  relative growth: 5.8%

## N[C@@H](Cc1ccccc1)C(=O)O [phenylalanine]
H661
  relief of suppressed growth by augmented supplementation (in words): not brought back
U937
  relief of suppressed growth by augmented supplementation (in words): not brought back

## calcium pantothenate [B5]
C4-28
  relative growth: 0.2%
GA10; [10]
  relative growth: 4.3%
H1437; [10]
  relative growth: 0.5%
H520; [9]
  relative growth: 0.3%
H661; [9]
  relative growth: 0.2%
H69; [9]
  relative growth: 5.5%
HCC1187
  relative growth: 0.0%
HCC1599; [10]
  relative growth: 4.9%
HCC70
  relative growth: 0.9%
HCT116; [10]
  relative growth: 56.4%
HL60
  relative growth: 0.1%
HepG2
  relative growth: 1.4%
Jurkat; [10]
  relative growth: 0.3%
MDA-MB-231
  relative growth: 0.2%
MDA-MB-453; [10]
  relative growth: 104.4%
PC-3
  relative growth: 0.8%
U937; [10]
  relative growth: 0.0%
VCaP
  relative growth: 0.1%

Source: US10973251B1, “Nutritional treatment for cancer” (The Board of Trustees of the Leland Stanford Junior …, priority 2015, dated 2021)
